From patent US12178809B2, “Pyridinyl sulfonamide derivatives, pharmaceutical compositions and uses thereof” (Boehringer Ingelheim International GmbH, priority 2018, dated 2024)
Structures can show the parent of a compound that is named as a salt. Where two headings read alike, the source gives them in different places.

Experiments:
[1] = target: human AOC3 enzyme (Homo sapiens (Human), UniProt Q16853); experiment: AOC3 biochemical assay (MAO-Glo)
Excerpt: The MAO-Glo™ Assay (commercially available from PROMEGA, #V1402) provides a sensitive method for the measurement of monoamine oxidase (MAO) activity (Valley, M. P. et al., 2006, Anal. Biochem. 359: 238-246) from a variety of tissues, biofluids or recombinant expressed or purified enzymes. As substrate a derivate of the beetle luciferin ((4S)-4,5-dihydro-2-(6-hydroxybenzothiazolyl)-4-thiazole-carboxylic acid) is used, which is oxidized at a primary amine moiety. After a spontaneous elimination and a catalyzed esterase reaction, the turnover of the luciferine by the luciferase is recorded as a signal of AOC3 activity.
An aliquot of 3 μL of the compound dilution is added to a 384 well plate (Optiplate, PS, flat bottom, white, PERKIN ELMER, #6007290) with a final DMSO concentration of 6.6%. Recombinant CHO cells, overexpressing the human (1500 cells/well), mouse (1000 cells/well) or rat (500 cells/well) AOC3 enzyme are diluted in reaction buffer and added in a volume of 15 μL to the wells. After incubation for 20 minutes at 37° C., 2 μL of MAO substrate (dissolved in DMSO at 16 mM, adjusted to assay concentration in reaction buffer to a final assay concentration of 20 μM) is added and further incubated for 60 minutes at 37° C. The turnover of the substrate is determined by the addition of 20 μL of the detection-mix which was generated by the addition of reconstitution buffer with esterase (PROMEGA, #V1402) to the luciferine detection reagent (PROMEGA, #V1402). After an incubation period of 20 minutes, the luminescent signal is measured with Envision 2104 Multilabel Reader (PERKIN ELMER).

[2] = target: AOC2 (Homo sapiens (Human), UniProt O75106); experiment: AOC2 biochemical assay (Amplex Red)
Method: An aliquot of 5 μL of the compound dilution is added to a 96 well plate (flat bottom F, black, GREINER bio-one, #655900) in a DMSO concentration of 2%. […] Cells are cultured for 3 days in EMEM culture medium containing 10% FCS (#04-00-1A, Biological Industries). After washing twice with ice cold PBS, cells are lysed by mechanic homogenation and cleared supernatants are shock frozen in liquid nitrogen and stored at -80° C. […] An Aliquot of 45 μL is added to the compound dilution and incubated for 30 min at 37° C. The enzymatic reaction is started with the addition of 50 μL of Amplex® Red reaction mix (final assay concentration: 100 mM sodiumphosphate, 120 μM Amplex® Red reagent (#A22177 Molecular Probes), 1.5 U/mL Horseradish Peroxidase (#P8375 Sigma-Aldrich), 2 mM phenylethylamine (#[…] Sigma-Aldrich), 0.05% Pluronic F-127 (#P3000MP Sigma-Aldrich), pH 7.4, 37° C.). The turnover per time of the substrate is determined directly with a fluorescence reader (Ex 540 nm/Em 590 nm) like Envision 2104 Multilabel Reader (PERKIN ELMER) for 60 min.

[3] = target: AOC1 (Homo sapiens (Human), UniProt P19801); experiment: AOC1 biochemical assay (Amplex Red)
Method: The Amplex® Red Assay (available from Thermo Fisher Scientific) provides a sensitive method for the detection of H2O2 generated during enzymatic reactions like the amine oxidation catalyzed by AOC1. The assay reagent is a colorless substrate (N-acetyl-3,7-dihydroxyphenoxazine) that reacts in a 1:1 stoichiometry with hydrogen peroxide (H2O2) to produce the fluorescent dye resorufin (7-hydroxyphenoxazin-3-one, excitation/emission maxima=570/585 nm).
An aliquot of 3 μL of the compound dilution is added to a 384 well plate (Optiplate, PS, flat bottom F, black, PERKIN ELMER, #6007270) in a DMSO concentration of 6.6%.
An AOC1 enzyme aliquot (#8297-AO-010, R&D Systems) is thawed on ice, diluted in reaction buffer and added in a volume of 7 μL to the wells to give a final assay concentration of 1 ng/well. After incubation of inhibitor and enzyme for 30 minutes at 37° C., the enzymatic reaction is started with the addition of 10 μL of Amplex® Red reaction mix (final assay concentration: 100 mM sodiumphosphate, 120 μM Amplex® Red reagent (#A22177 Molecular Probes), 1.5 U/mL Horseradish Peroxidase (#P8375 Sigma-Aldrich), 200 μM putrescine (#P7505 Sigma-Alrdich), 0.05% Pluronic F-127 (#P3000MP Sigma-Aldrich), pH 7.4, 37° C.).
After an incubation for 30 minutes at 37° C. the turnover of the substrate is determined directly (or after the addition of an excess of an amine-oxidase inhibitor) with a fluorescence reader (Ex 540 nm/Em 590 nm) like Envision 2104 Multilabel Reader (PERKIN ELMER).

[4] = comparison table, unit μM, read-out: IC50 AOC1
[5] = comparison table, read-out: IC50 AOC3
[6] = comparison table, read-out: IC50 AOC2

Chain of human AOC3 enzyme (Q16853 whole entry): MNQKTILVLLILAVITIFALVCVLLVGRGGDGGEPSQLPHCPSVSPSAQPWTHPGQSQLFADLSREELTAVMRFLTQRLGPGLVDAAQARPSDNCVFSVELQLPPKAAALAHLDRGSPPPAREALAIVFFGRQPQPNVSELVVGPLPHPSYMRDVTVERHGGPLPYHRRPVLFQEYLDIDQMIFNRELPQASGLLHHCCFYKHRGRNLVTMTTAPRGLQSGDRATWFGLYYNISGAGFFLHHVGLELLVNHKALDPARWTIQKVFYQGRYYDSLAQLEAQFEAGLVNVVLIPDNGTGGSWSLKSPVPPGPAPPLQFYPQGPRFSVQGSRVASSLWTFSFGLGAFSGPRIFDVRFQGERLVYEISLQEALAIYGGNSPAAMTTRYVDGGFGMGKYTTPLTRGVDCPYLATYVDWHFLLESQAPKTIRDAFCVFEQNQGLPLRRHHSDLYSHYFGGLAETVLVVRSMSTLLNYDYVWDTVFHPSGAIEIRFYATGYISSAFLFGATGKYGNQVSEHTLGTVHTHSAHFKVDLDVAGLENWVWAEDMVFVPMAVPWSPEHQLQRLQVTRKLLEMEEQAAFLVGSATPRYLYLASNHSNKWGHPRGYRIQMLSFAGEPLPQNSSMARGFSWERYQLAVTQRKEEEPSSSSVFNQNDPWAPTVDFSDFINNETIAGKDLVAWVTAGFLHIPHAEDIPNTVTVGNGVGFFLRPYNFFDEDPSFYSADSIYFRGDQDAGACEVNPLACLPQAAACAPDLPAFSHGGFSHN
Chain of AOC1 (P19801 20-751): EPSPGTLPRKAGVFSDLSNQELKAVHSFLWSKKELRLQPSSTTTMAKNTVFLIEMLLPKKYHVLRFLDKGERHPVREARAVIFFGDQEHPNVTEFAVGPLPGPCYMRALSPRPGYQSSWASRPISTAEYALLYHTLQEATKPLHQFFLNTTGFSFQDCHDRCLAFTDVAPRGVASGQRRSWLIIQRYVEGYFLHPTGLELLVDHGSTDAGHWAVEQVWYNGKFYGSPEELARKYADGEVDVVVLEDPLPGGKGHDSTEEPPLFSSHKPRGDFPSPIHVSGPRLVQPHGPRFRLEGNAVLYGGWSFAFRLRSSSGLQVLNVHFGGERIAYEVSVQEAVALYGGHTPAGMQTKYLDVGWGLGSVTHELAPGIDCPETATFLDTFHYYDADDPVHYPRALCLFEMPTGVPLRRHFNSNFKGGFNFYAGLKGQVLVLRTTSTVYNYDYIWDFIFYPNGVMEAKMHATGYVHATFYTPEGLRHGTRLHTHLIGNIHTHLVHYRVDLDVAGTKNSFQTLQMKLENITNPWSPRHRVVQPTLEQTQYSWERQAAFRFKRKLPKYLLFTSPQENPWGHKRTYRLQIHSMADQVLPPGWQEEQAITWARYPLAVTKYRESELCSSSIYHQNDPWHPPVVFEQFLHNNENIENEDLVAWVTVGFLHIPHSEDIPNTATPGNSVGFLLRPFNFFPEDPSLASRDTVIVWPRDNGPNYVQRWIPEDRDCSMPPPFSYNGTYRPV
Chain of AOC2 (O75106 whole entry): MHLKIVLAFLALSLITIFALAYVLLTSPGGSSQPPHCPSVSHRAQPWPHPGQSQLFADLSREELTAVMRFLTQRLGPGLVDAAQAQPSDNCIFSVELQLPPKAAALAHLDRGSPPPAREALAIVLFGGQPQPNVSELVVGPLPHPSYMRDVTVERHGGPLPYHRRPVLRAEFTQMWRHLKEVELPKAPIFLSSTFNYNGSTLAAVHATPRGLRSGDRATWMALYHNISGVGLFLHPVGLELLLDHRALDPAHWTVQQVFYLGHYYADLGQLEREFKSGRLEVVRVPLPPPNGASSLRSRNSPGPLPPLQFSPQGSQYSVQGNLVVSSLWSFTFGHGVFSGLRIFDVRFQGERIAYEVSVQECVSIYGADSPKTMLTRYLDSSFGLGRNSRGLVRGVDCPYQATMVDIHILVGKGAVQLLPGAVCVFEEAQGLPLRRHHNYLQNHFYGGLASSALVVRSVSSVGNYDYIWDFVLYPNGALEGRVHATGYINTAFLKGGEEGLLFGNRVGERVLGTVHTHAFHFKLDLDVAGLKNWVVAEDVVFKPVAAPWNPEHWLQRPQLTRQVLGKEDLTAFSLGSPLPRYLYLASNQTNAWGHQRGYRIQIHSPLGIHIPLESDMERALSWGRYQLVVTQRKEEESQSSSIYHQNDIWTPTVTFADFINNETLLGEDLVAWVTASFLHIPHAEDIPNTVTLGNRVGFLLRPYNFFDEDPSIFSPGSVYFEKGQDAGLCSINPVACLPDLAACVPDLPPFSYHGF

Row | IC50 ([1]; read-out: AOC3 IC50) | IC50 ([2]; read-out: AOC2 IC50) | IC50 ([3]; read-out: AOC1 IC50) | fold less active against AOC2 as compared to AOC3 (ratio IC50 AOC2/IC50 AOC3) [2] | IC50 [3, 4] | IC50 [1, 5] | IC50 [2, 6] | IC50 ([3]; comparison table, read-out: IC50 AOC1) | Structure (SMILES)
1 | 42 nM | 158 nM | > 49.9 µM | – | – | – | – | – | CN(C)C(=O)C1CN(S(=O)(=O)c2ccc(OC/C(=C/F)CN)nc2)C1 [Example 28]
2 | 46 nM | 126 nM | 11.4 µM | – | – | – | – | – | NC/C(=C\F)COc1ccc(S(=O)(=O)N2C[C@H]3C[C@@]3(C(=O)N3CCOCC3)C2)cn1 [Example 30]
3 | 21 nM | 121 nM | > 50 µM | – | – | – | – | – | NC/C(=C\F)COc1ccc(S(=O)(=O)N2CC(C(N)=O)C2)cn1 [Example 31]
4 | 17 nM | 73 nM | 39.5 µM | – | – | – | – | – | NC/C(=C\F)COc1ccc(S(=O)(=O)N2CC(C3CCN(C(=O)C4CC4)CC3)C2)cn1 [Example 32]
5 | 15 nM | 49 nM | 33 µM | – | – | – | – | – | NC/C(=C\F)COc1ccc(S(=O)(=O)N2CC[C@@H](C(N)=O)C2)cn1 [Example 33]
6 | 14 nM | 14 nM | 15.8 µM | – | – | – | – | – | CCNC(=O)C1(C)CCN(S(=O)(=O)c2ccc(OC/C(=C/F)CN)nc2)CC1 [Example 34]
7 | 38 nM | 207 nM | > 50 µM | ca. 5 fold | > 50 µM | – | – | – | NC/C(=C\F)COc1ccc(S(=O)(=O)N2CC[C@H](O)C2)cn1 [Example 35, (S)-1-[6-((E)-2-Aminomethyl-3-fluoro-allyloxy)-pyridine-3-sulfonyl]-pyrrolidin-3-ol]
8 | 67 nM | 551 nM | > 50 µM | – | – | – | – | – | NC/C(=C\F)COc1ccc(S(=O)(=O)N2CC[C@@H](O)C2)cn1 [Example 36]
9 | 15 nM | 451 nM | 22.6 µM | – | – | – | – | – | NC/C(=C\F)COc1ccc(S(=O)(=O)N2CC(F)(F)C2)cn1 [Example 37]
10 | 13 nM | 278 nM | > 50 µM | – | – | – | – | – | NC/C(=C\F)COc1ccc(S(=O)(=O)N2CCCC2)cn1 [Example 38]
11 | 19 nM | 262 nM | 17 µM | – | – | – | – | – | NC/C(=C\F)COc1ccc(S(=O)(=O)N2CCC2)cn1 [Example 39]
12 | 26 nM | 125 nM | > 50 µM | ca. 5 fold | > 50 µM | 26 nM | 125 nM | – | COC1CCN(S(=O)(=O)c2ccc(OC/C(=C/F)CN)nc2)C1.O=C(O)C(F)(F)F (stereo not shown) [Example 40]
13 | 5 nM | 123 nM | 25.4 µM | – | – | – | – | – | NC/C(=C\F)COc1ccc(S(=O)(=O)N2CC3CC3C2)cn1 (stereo not shown) [Example 41]
14 | 20 nM | 87 nM | > 50 µM | – | – | 20 nM | 87 nM | > 50 µM | COC1CN(S(=O)(=O)c2ccc(OC/C(=C/F)CN)nc2)C1 [Example 42]
15 | 16 nM | 69 nM | 36.5 µM | – | – | – | – | – | NC/C(=C\F)COc1ccc(S(=O)(=O)N2CCC(F)(F)C2)cn1 [Example 43]
16 | 14 nM | 574 nM | > 50 µM | – | – | – | – | – | CNC(=O)C1CCN(S(=O)(=O)c2ccc(OC/C(=C/F)CN)nc2)CC1 [Example 44, 1-[6-((E)-2-Aminomethyl-3-fluoro-allyloxy)-pyridine-3-sulfonyl]-piperidine-4-carboxylic acid methylamide trifluoroacetate]

Row | IC50 ([1]; read-out: AOC3 IC50) | IC50 ([2]; read-out: AOC2 IC50) | IC50 ([3]; read-out: AOC1 IC50) | fold less active against AOC2 as compared to AOC3 (ratio IC50 AOC2/IC50 AOC3) [2] | IC50 [3, 4] | IC50 [1, 5] | IC50 [2, 6] | IC50 ([3]; comparison table, read-out: IC50 AOC1) | Structure (SMILES)
17 | 10 nM | 307 nM | 11.4 µM | ca. 30 fold | – | – | – | – | NC/C(=C\F)COc1ccc(S(=O)(=O)N2CCC(O)CC2)cn1.O=C(O)C(F)(F)F [Example 45]
18 | 10 nM | 234 nM | > 50 µM | – | – | – | – | – | COC1CCN(S(=O)(=O)c2ccc(OC/C(=C/F)CN)nc2)CC1 [Example 46]
19 | 5 nM | 144 nM | 23.2 µM | – | – | – | – | – | NC/C(=C\F)COc1ccc(S(=O)(=O)N2CCCCC2)cn1 [Example 47]
20 | 24 nM | 67 nM | 1.49 µM | – | – | – | – | – | CC1(O)CCN(S(=O)(=O)c2ccc(OC/C(=C/F)CN)nc2)CC1 [Example 48]
21 | 21 nM | 50 nM | > 50 µM | – | – | – | – | – | NC/C(=C\F)COc1ccc(S(=O)(=O)N2CC[C@H](C(N)=O)C2)cn1 [Example 49]
22 | 20 nM | 24 nM | > 50 µM | – | – | – | – | – | NC/C(=C\F)COc1ccc(S(=O)(=O)N2CCC(O)(C(F)(F)F)CC2)cn1 [Example 50]
23 | 13 nM | 325 nM | 48 µM | – | – | – | – | – | COC(=O)C1CCN(S(=O)(=O)c2ccc(OC/C(=C/F)CN)nc2)CC1 [Example 51, 1-[6-((E)-2-Aminomethyl-3-fluoro-allyloxy)-pyridine-3-sulfonyl]-piperidine-4-carboxylic acid methyl ester trifluoroacetate]
24 | 9 nM | 315 nM | 41.8 µM | – | – | – | – | – | COC(=O)[C@H]1[C@@H]2CN(S(=O)(=O)c3ccc(OC/C(=C/F)CN)nc3)C[C@@H]21 [Example 52]
25 | 15 nM | 19 nM | > 50 µM | – | – | – | – | – | COC(=O)C1(C)CCN(S(=O)(=O)c2ccc(OC/C(=C/F)CN)nc2)CC1 [Example 53]
26 | 308 nM | 4 nM | > 50 µM | – | – | – | – | – | NC/C(=C\F)COc1ccc(S(=O)(=O)N2CCC(CC(=O)O)CC2)cn1 [Example 54, trifluoroacetate]
27 | 89 nM | 34 nM | 34.7 µM | – | – | – | – | – | NC/C(=C\F)COc1ccc(S(=O)(=O)N2CCC(C(=O)O)CC2)cn1 [Example 56]
28 | 2690 nM | 6 nM | > 50 µM | – | – | – | – | – | CC1(C(=O)O)CCN(S(=O)(=O)c2ccc(OC/C(=C/F)CN)nc2)CC1 [Example 57]
29 | 114 nM | 363 nM | > 49.9 µM | – | – | – | – | – | CC1(C(=O)NC2CCOCC2)CCN(S(=O)(=O)c2ccc(OC/C(=C/F)CN)nc2)CC1 [Example 58, 1-[6-((E)-2-Aminomethyl-3-fluoro-allyloxy)-pyridine-3-sulfonyl]-4-methyl-piperidine-4-carboxylic acid (tetrahydropyran-4-yl)-amide trifluoroacetate]
30 | 21 nM | 92 nM | > 50 µM | – | – | – | – | – | NC/C(=C\F)COc1ccc(S(=O)(=O)N2CCC(CC(N)=O)CC2)cn1 [Example 60]
31 | 26 nM | 61 nM | > 50 µM | – | – | – | – | – | CC1(C(N)=O)CCN(S(=O)(=O)c2ccc(OC/C(=C/F)CN)nc2)CC1 [Example 61]

Row | Structure (SMILES) | IC50 ([1]; read-out: AOC3 IC50) | IC50 ([2]; read-out: AOC2 IC50) | IC50 ([3]; read-out: AOC1 IC50) | fold less active against AOC2 as compared to AOC3 (ratio IC50 AOC2/IC50 AOC3) [2] | IC50 [3, 4] | IC50 [1, 5] | IC50 [2, 6] | IC50 ([3]; comparison table, read-out: IC50 AOC1)
32 | NC/C(=C\F)COc1ccc(S(=O)(=O)N2C[C@@H]3[C@H](C2)[C@H]3C(=O)O)cn1 [Example 55, trans-3-[6-((E)-2-Aminomethyl-3-fluoro-allyloxy)-pyridine-3-sulfonyl]-3-aza-bicyclo[3.1.0]hexane-6-carboxylic acid trifluoroacetate] | 391 nM | 50 nM | > 50 µM | – | – | – | – | –
